Laboratory results reported in US20260209262A1, “MEMBRANE FILTRATION-ASSISTED SOLUTION PHASE OLIGONUCLEOTIDE SYNTHESIS” (EXACTMER LIMITED, priority 2022, published 2026).
Values after ≈ are worked out from the molar mass of the structure shown.

Assay: Solubility of protected phosphoramidites in acetonitrile (aliquots added until a clear solution)
Type: physicochemical
Settings: for Solubility: 30° C.
Method: A range of 5′-O-Dmtr-nucleoside-3′-O-(cyanoethyl-N, N-diisopropyl) phosphoramidites (FIG. 1. compounds 1-5) were studied to determine their suitability for solution-phase oligonucleotide synthesis in acetonitrile. Each compound (ca. 0.5 g) was placed in a flask with a magnetic stirrer immersed in an oil bath held at 30° C. To the flask was added acetonitrile (0.200 mL) and the contents stirred for 2 min. After this, further aliquots of acetonitrile (0.050 mL) were added, each time followed by stirring for 2 min. The volume of acetonitrile required to establish a clear solution was recorded. The solubility so determined is recorded in Table 1.

Compound	solubility in acetonitrile [mM]	Solubility [mM]	increase in solubility by protection of N3 (relative to unprotected 2a)
COc1ccc(C(OC[C@H]2O[C@@H](n3ccc(=O)[nH]c3=O)[C@H](OC)[C@@H]2OP(OCCC#N)N(C(C)C)C(C)C)(c2ccccc2)c2ccc(OC)cc2)cc1 (some centres unmarked) [Compound 1a]	50 (≈ 38 mg/mL)	70 (≈ 53.3 mg/mL)	
COc1ccc(C(OC[C@H]2O[C@@H](n3ccc(=O)n(C(=O)c4ccccc4)c3=O)[C@H](OC)[C@@H]2OP(OCCC#N)N(C(C)C)C(C)C)(c2ccccc2)c2ccc(OC)cc2)cc1 (some centres unmarked) [Compound 1b]		1920 (≈ 1660 mg/mL)	
COc1ccc(C(OCC2OC(n3ccc(=O)n(C(=O)c4ccc(C(C)(C)C)cc4)c3=O)C(OC)C2OP(OCCC#N)N(C(C)C)C(C)C)(c2ccccc2)c2ccc(OC)cc2)cc1 (centres unmarked) [Compound 1c]		1740 (≈ 1600 mg/mL)	
COc1ccc(C(=O)n2c(=O)ccn(C3OC(COC(c4ccccc4)(c4ccc(OC)cc4)c4ccc(OC)cc4)C(OP(OCCC#N)N(C(C)C)C(C)C)C3OC)c2=O)cc1 (centres unmarked) [Compound 1d]		2420 (≈ 2170 mg/mL)	
COc1ccc(C(OCC2OC(n3cc(C)c(=O)[nH]c3=O)CC2OP(OCCC#N)N(C(C)C)C(C)C)(c2ccccc2)c2ccc(OC)cc2)cc1 (centres unmarked) [Compound 2a]		1160 (≈ 864 mg/mL)	
COc1ccc(C(OC[C@H]2O[C@@H](n3cc(C)c(=O)n(C(=O)c4ccccc4)c3=O)C[C@@H]2OP(OCCC#N)N(C(C)C)C(C)C)(c2ccccc2)c2ccc(OC)cc2)cc1 (some centres unmarked) [Compound 2b]		1530 (≈ 1300 mg/mL)	more than 30%
COc1ccc(C(OC[C@H]2O[C@@H](n3ccc(NC(C)=O)nc3=O)[C@H](OC)[C@@H]2OP(OCCC#N)N(C(C)C)C(C)C)(c2ccccc2)c2ccc(OC)cc2)cc1 (some centres unmarked) [Compound 3]		1300 (≈ 1040 mg/mL)	
COc1ccc(C(OCC2OC(n3cnc4c(NC(=O)c5ccccc5)ncnc43)C(OC)C2OP(OCCC#N)N(C(C)C)C(C)C)(c2ccccc2)c2ccc(OC)cc2)cc1 (centres unmarked) [Compound 4]		1210 (≈ 1070 mg/mL)	
COc1ccc(C(OCC2OC(n3cnc4c(=O)[nH]c(NC(=O)C(C)C)nc43)C(OC)C2OP(OCCC#N)N(C(C)C)C(C)C)(c2ccccc2)c2ccc(OC)cc2)cc1 (centres unmarked) [Compound 5]		1280 (≈ 1110 mg/mL)	
